Data: patent publication US8906944B2, “Compounds as tyrosine kinase modulators” (Allergan, Inc., priority 2009, dated 2014)
pIC50: −log10 of the molar value.

Experiments:
[1] = target: VEGFR1 (Homo sapiens, UniProt P17948); experiment: VEGFR1 enzyme assay; type: biochemical; details: Table IV, amide or urea linker
[2] = target: PDGFβ (Homo sapiens, UniProt P09619); experiment: PDGFβ enzyme assay; type: biochemical; details: Table IV, amide or urea linker
[3] = target: T1, human VEGF receptor (VEGFR-2) (Homo sapiens, UniProt P35968); experiment: VEGFR2 kinase assay; type: biochemical; details: His-VEGFR-2 cytoplasmic domain, 3.6 μM ATP; Table IV, amide or urea linker; read-out: VEGFR2 Enzyme IC50
T1 construct: The cytoplasmic domain of the human VEGF receptor (VEGFR-2) was expressed; His; made in house; host or cells: insect cells (baculovirus)
How it was run: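 His-tagged VEGFR-2 cytoplasmic domain from baculovirus-infected insect cells phosphorylating plate-bound poly-Glu-Tyr (4:1). IC50 from blank-subtracted optical density versus compound concentration.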

[4] = target: VEGFR2 (Homo sapiens, UniProt P35968); experiment: VEGF stimulated Ca++ signal in vitro (FLIPR)
Sequence of VEGFR2 (P35968 20-1356): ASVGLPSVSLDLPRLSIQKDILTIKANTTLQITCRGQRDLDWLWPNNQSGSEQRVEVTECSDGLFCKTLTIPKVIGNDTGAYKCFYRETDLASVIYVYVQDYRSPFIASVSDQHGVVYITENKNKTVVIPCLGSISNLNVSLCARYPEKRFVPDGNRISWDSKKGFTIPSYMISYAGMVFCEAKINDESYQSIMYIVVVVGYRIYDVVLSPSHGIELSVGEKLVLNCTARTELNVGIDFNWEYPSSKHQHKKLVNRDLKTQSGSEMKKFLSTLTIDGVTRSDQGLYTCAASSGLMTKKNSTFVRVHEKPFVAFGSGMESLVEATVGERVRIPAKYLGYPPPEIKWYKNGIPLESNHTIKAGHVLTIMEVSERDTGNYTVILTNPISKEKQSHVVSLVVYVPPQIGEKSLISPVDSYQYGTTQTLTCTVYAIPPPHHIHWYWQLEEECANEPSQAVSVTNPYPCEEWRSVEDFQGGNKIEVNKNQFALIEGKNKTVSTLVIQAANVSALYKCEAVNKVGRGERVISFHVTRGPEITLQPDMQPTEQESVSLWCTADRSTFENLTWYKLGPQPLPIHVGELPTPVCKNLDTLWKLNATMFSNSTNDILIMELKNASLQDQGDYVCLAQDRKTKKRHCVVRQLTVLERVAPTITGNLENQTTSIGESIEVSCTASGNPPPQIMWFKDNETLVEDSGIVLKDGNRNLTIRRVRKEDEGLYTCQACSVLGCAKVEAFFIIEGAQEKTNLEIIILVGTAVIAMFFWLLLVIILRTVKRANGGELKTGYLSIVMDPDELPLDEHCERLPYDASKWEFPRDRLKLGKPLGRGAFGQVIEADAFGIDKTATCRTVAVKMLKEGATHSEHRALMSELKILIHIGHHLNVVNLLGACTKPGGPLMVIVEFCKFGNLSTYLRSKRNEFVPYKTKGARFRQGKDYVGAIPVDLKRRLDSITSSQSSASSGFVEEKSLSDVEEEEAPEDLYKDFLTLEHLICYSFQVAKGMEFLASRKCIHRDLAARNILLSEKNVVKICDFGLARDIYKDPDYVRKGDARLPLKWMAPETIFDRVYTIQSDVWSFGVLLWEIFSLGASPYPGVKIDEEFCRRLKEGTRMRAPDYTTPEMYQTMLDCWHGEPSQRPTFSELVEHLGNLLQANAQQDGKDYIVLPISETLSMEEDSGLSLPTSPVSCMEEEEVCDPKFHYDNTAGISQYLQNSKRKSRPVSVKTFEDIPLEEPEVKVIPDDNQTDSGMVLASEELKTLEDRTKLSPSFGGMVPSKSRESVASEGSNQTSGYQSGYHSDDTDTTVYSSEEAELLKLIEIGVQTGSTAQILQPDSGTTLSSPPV
Method: VEGF Stimulated Ca^++Signal in Vitro
Automated FLIPR (Fluorometric Imaging Plate Reader) technology was used to screen for inhibitors of VEGF induced increases in intracellular calcium levels in fluorescent dye loaded endothelial cells. HUVEC (human umbilical vein endothelial cells) (Clonetics) were seeded in 96-well fibronectin coated black-walled plates overnight at 37 degree. C./5% CO2. […] C. Cells were washed 4 times (Original Cell Wash, Labsystems) to remove extracellular dye. […] Data were generated by determining max-min fluorescence levels for unstimulated, stimulated, and drug treated samples. IC50 values for test compounds were calculated from % inhibition of VEGF stimulated responses in the absence of inhibitor.

Sequence of PDGFβ (P09619 33-1106): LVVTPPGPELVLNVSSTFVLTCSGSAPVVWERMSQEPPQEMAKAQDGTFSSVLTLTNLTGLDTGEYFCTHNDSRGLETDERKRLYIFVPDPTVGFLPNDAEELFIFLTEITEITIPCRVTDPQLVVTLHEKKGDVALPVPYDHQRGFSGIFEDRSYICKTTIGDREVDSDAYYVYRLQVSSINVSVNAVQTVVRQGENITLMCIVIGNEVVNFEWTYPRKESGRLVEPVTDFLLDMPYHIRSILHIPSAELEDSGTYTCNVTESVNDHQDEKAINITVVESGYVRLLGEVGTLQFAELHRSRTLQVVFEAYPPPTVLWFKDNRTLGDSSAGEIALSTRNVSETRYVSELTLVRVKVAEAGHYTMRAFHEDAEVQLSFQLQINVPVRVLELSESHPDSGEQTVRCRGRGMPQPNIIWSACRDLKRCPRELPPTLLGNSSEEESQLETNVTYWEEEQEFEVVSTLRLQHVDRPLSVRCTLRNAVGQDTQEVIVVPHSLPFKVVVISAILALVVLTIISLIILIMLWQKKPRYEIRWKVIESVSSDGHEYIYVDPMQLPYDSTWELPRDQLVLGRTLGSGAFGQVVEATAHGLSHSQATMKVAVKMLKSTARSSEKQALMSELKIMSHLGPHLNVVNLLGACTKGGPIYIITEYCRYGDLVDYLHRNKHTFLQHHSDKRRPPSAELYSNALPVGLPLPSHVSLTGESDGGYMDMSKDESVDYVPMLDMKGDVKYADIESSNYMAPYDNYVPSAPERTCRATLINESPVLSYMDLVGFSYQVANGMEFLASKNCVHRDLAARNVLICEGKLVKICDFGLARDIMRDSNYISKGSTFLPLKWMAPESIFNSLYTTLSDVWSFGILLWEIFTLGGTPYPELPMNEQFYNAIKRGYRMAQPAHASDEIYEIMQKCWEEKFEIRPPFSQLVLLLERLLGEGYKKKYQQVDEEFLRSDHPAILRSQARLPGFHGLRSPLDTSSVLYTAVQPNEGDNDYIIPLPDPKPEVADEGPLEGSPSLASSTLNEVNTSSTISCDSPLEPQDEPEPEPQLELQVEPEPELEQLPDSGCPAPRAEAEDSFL
Sequence of VEGFR1 (P17948 27-1338, species assumed): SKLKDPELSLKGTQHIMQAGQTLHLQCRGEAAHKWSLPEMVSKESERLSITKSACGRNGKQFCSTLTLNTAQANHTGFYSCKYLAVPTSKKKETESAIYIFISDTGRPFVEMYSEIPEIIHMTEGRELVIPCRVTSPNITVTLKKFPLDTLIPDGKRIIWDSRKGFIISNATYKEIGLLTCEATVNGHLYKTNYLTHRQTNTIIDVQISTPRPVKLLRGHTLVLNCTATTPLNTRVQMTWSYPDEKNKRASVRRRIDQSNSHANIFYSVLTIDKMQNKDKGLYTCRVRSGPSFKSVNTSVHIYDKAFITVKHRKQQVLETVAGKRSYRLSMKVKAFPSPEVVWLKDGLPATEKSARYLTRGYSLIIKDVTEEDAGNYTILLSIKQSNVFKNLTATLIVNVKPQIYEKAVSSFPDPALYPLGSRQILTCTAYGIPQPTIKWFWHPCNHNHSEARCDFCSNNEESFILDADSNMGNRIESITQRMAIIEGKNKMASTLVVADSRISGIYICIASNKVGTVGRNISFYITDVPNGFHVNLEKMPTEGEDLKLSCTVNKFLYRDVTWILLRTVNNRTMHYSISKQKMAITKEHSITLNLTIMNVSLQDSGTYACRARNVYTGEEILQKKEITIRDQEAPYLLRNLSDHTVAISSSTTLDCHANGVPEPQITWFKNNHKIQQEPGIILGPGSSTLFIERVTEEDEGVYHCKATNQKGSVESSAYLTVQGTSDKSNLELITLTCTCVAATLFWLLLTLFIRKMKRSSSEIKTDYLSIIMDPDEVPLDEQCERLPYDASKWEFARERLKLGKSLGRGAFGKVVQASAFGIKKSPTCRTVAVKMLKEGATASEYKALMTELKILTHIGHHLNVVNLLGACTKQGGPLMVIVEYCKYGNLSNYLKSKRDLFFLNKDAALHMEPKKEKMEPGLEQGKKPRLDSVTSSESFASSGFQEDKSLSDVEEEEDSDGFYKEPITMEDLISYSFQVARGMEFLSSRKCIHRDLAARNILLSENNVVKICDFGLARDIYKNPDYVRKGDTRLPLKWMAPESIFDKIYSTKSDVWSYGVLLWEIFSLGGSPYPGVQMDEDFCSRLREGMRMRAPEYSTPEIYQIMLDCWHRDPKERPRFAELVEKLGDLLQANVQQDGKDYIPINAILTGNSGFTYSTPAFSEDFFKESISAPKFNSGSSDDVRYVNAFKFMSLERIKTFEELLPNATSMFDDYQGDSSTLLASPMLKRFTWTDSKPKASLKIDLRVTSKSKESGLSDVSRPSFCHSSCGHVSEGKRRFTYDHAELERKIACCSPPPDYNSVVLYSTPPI
T1 sequence (P35968 786-1356 limits assumed): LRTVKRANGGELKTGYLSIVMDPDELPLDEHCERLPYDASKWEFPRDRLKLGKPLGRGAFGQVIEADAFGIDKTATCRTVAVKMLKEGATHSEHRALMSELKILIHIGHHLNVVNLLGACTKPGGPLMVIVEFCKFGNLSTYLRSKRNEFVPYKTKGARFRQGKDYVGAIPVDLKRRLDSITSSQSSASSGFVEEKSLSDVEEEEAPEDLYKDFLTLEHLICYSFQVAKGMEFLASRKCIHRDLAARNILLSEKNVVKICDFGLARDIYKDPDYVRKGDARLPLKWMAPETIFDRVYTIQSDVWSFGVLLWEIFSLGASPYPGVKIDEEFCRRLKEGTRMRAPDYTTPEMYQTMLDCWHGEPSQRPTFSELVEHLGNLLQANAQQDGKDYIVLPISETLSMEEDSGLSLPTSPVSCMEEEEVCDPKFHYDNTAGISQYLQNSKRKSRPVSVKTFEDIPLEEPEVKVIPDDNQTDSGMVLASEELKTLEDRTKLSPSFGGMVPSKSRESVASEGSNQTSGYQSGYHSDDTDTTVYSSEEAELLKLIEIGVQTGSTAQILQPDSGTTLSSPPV

SMILES	pIC50 [1]	pIC50 [2]	pIC50 [3]	pIC50 [4]
COC(=O)[C@@H]1C[C@@H](O)CN1CCNC(=O)c1c[nH]c(-c2cc(Oc3ccc(NC(=O)Nc4cc(C)ccc4F)cc3)ccn2)c1 (relative stereo) [Example 161, methyl rel-(2R,4S)-1-(2-{[(5-{4-[4-({[(2-fluoro-5-methylphenyl)amino]carbonyl}amino)phenoxy]pyridin-2-yl}-1H-pyrrol-3-yl)carbonyl]amino}ethyl)-4-hydroxypyrrolidine-2-carboxylate]	8.05	7.70	8.05	8.00
COC(=O)[C@@H]1C[C@@H](O)CN1CCCNC(=O)c1c[nH]c(-c2cc(Oc3ccc(NC(=O)Nc4cc(C)ccc4F)cc3)ccn2)c1 (relative stereo) [Example 164, methyl rel-(2R,4S)-1-(3-{[(5-{4-[4-({[(2-fluoro-5-methylphenyl)amino]carbonyl}amino)phenoxy]pyridin-2-yl}-1H-pyrrol-3-yl)carbonyl]amino}propyl)-4-hydroxypyrrolidine-2-carboxylate]	8.00	7.77	8.05	8.30
COC(=O)CNCCCNC(=O)c1c[nH]c(-c2cc(Oc3ccc(NC(=O)Nc4cc(C)ccc4F)cc3)ccn2)c1 [Example 154, methyl [(3-{[(5-{4-[4-({[(2-fluoro-5-methylphenyl)amino]carbonyl}amino)phenoxy]pyridin-2-yl}-1H-pyrrol-3-yl)carbonyl]amino}propyl)amino]acetate]	8.10	7.82	8.15	7.85
COC(=O)CNCCNC(=O)c1c[nH]c(-c2cc(Oc3ccc(NC(=O)Nc4cc(C)ccc4F)cc3)ccn2)c1 [Example 155, methyl [(2-{[(5-{4-[4-({[(2-fluoro-5-methylphenyl)amino]carbonyl}amino)phenoxy]pyridin-2-yl}-1H-pyrrol-3-yl)carbonyl]amino}ethyl)amino]acetate]	8.15	7.70	8.10	8.40
COC(=O)CN(CCNC(=O)c1c[nH]c(-c2cc(Oc3ccc(NC(=O)Nc4cc(C)ccc4F)cc3)ccn2)c1)CC(=O)OC [Example 156, dimethyl 2,2′-[(2-{[(5-{4-[4-({[(2-fluoro-5-methylphenyl)amino]carbonyl}amino)phenoxy]pyridin-2-yl}-1H-pyrrol-3-yl)carbonyl]amino}ethyl)imino]diacetate]	8.10	7.51	7.96	8.05
CCOC(=O)CN1CCN(CCNC(=O)c2c[nH]c(-c3cc(Oc4ccc(NC(=O)Nc5cc(C)ccc5F)cc4)ccn3)c2)CC1 [Example 157, ethyl [4-(2-{[(5-{4-[4-({[(2-fluoro-5-methylphenyl)amino]carbonyl}amino)phenoxy]pyridin-2-yl}-1H-pyrrol-3-yl)carbonyl]amino}ethyl)piperazin-1-yl]acetate]	8.10	7.41	8.00	8.52
CCOC(=O)CN1CCN(CCCNC(=O)c2c[nH]c(-c3cc(Oc4ccc(NC(=O)Nc5cc(C)ccc5F)cc4)ccn3)c2)CC1 [Example 158, ethyl [4-(3-{[(5-{4-[4-({[(2-fluoro-5-methylphenyl)amino]carbonyl}amino)phenoxy]pyridin-2-yl}-1H-pyrrol-3-yl)carbonyl]amino}propyl)piperazin-1-yl]acetate]	8.22	7.54	7.96	7.96
Cc1ccc(F)c(NC(=O)Nc2ccc(Oc3ccnc(-c4cc(C(=O)NCCCN5CCOC(CO)C5)c[nH]4)c3)cc2)c1 (centres unmarked) [Example 159, 5-{4-[4-({[(2-fluoro-5-methylphenyl)amino]carbonyl}amino)phenoxy]pyridin-2-yl}-N-{3-[2-(hydroxymethyl)morpholin-4-yl]propyl}-1H-pyrrole-3-carboxamide]	8.05	7.48	7.96	7.59
COC(=O)CCCOC(=O)c1c[nH]c(-c2cc(Oc3ccc(NC(=O)Nc4cc(C)ccc4F)cc3)ccn2)c1 [Example 165, 4-methoxy-4-oxobutyl 5-{4-[4-({[(2-fluoro-5-methylphenyl)amino]carbonyl}amino)phenoxy]pyridin-2-yl}-1H-pyrrole-3-carboxylate]	7.77	7.46	8.00	7.92

Further lines, results first:

pIC50 [1]	pIC50 [2]	pIC50 [3]	pIC50 [4]	SMILES
8.00	7.68	8.30	8.00	COC(=O)[C@@H]1C[C@@H](O)CN1CCCNC(=O)c1c[nH]c(-c2cc(Oc3ccc(NC(=O)Nc4cc(C)ccc4F)c(F)c3)ccn2)c1 (relative stereo) [Example 217, methyl rel-(2R,4S)-1-(3-{[(5-{4-[3-fluoro-4-({[(2-fluoro-5-methylphenyl)amino]carbonyl}amino)phenoxy]pyridin-2-yl}-1H-pyrrol-3-yl)carbonyl]amino}propyl)-4-hydroxypyrrolidine-2-carboxylate]
7.68	7.57	8.05	7.96	CCOC(=O)CCCCNC(=O)c1c[nH]c(-c2cc(Oc3ccc(NC(=O)Nc4cc(C)ccc4F)cc3)ccn2)c1 [Example 167, ethyl 5-{[(5-{4-[4-({[(2-fluoro-5-methylphenyl)amino]carbonyl}amino)phenoxy]pyridin-2-yl}-1H-pyrrol-3-yl)carbonyl]amino}pentanoate]
7.77	7.92	8.00	7.96	CCOC(=O)N1CCN(CCNC(=O)c2c[nH]c(-c3cc(Oc4ccc(NC(=O)Nc5cc(C)ccc5F)c(F)c4)ccn3)c2)CC1 [Example 168, ethyl 4-(2-{[(5-{4-[3-fluoro-4-({[(2-fluoro-5-methylphenyl)amino]carbonyl}amino)phenoxy]pyridin-2-yl}-1H-pyrrol-3-yl)carbonyl]amino}ethyl)piperazine-1-carboxylate]
7.04	7.48	7.64	7.68	CCOC(=O)N1CCN(CCCNC(=O)c2c[nH]c(-c3cc(Oc4cc(C(=O)Nc5cc(C)ccc5F)ccc4F)ccn3)c2)CC1 [Example 171, ethyl 4-{3-[({5-[4-(2-fluoro-5-{[(2-fluoro-5-methylphenyl)amino]carbonyl}phenoxy)pyridin-2-yl]-1H-pyrrol-3-yl}carbonyl)amino]propyl}piperazine-1-carboxylate]
7.96	7.72	8.00	7.89	CCOC(=O)N1CCN(CCCNC(=O)c2c[nH]c(-c3cc(Oc4ccc(NC(=O)Nc5cc(C)ccc5F)c(F)c4)ccn3)c2)CC1 [Example 172, ethyl 4-(3-{[(5-{4-[3-fluoro-4-({[(2-fluoro-5-methylphenyl)amino]carbonyl}amino)phenoxy]pyridin-2-yl}-1H-pyrrol-3-yl)carbonyl]amino}propyl)piperazine-1-carboxylate]
8.10	7.92	8.05	8.52	COC(=O)CNC(=O)c1c[nH]c(-c2cc(Oc3ccc(NC(=O)Nc4cc(C)ccc4F)c(F)c3)ccn2)c1 [Example 211, methyl {[(5-{4-[3-fluoro-4-({[(2-fluoro-5-methylphenyl)amino]carbonyl}amino)phenoxy]pyridin-2-yl}-1H-pyrrol-3-yl)carbonyl]amino}acetate]
7.70	7.35	7.89	8.22	Cc1ccc(F)c(NC(=O)Nc2ccc(Oc3ccnc(-c4cc(C(=O)NCCCNC(=O)OC(C)(C)C)c[nH]4)c3)cc2F)c1 [Example 212, tert-butyl (3-{[(5-{4-[3-fluoro-4-({[(2-fluoro-5-methylphenyl)amino]carbonyl}amino)phenoxy]pyridin-2-yl}-1H-pyrrol-3-yl)carbonyl]amino}propyl)carbamate]
7.89	7.42	8.05	8.52	COC(=O)CN(CCCNC(=O)c1c[nH]c(-c2cc(Oc3ccc(NC(=O)Nc4cc(C)ccc4F)c(F)c3)ccn2)c1)CC(=O)OC [Example 213, dimethyl 2,2′-[(3-{[(5-{4-[3-fluoro-4-({[(2-fluoro-5-methylphenyl)amino]carbonyl}amino)phenoxy]pyridin-2-yl}-1H-pyrrol-3-yl)carbonyl]amino}propyl)imino]diacetate]
7.89	7.47	8.30	8.40	COC(=O)CN(CCNC(=O)c1c[nH]c(-c2cc(Oc3ccc(NC(=O)Nc4cc(C)ccc4F)c(F)c3)ccn2)c1)CC(=O)OC [Example 215, dimethyl 2,2′-[(2-{[(5-{4-[3-fluoro-4-({[(2-fluoro-5-methylphenyl)amino]carbonyl}amino)phenoxy]pyridin-2-yl}-1H-pyrrol-3-yl)carbonyl]amino}ethyl)imino]diacetate]
8.10	7.54	8.05	8.10	CCOC(=O)CN1CCN(C(=O)c2c[nH]c(-c3cc(Oc4ccc(NC(=O)Nc5cc(C)ccc5F)c(F)c4)ccn3)c2)CC1 [Example 219, ethyl {4-[(5-{4-[3-fluoro-4-({[(2-fluoro-5-methylphenyl)amino]carbonyl}amino)phenoxy]pyridin-2-yl}-1H-pyrrol-3-yl)carbonyl]piperazin-1-yl}acetate]
8.15	7.72	7.96	7.82	Cc1ccc(F)c(NC(=O)Nc2ccc(Oc3ccnc(-c4cc(C(=O)N5CCNCC5)c[nH]4)c3)cc2F)c1 [Example 221, 1-(2-fluoro-5-methylphenyl)-3-[2-fluoro-4-({2-[4-(piperazin-1-ylcarbonyl)-1H-pyrrol-2-yl]pyridin-4-yl}oxy)phenyl]urea]
